According to the NIST ThermoML archive (doi:10.1021/je201283n):

Settings: Liquid, isochoric method

CCCCn1cc[n+](C)c1.N#CN=C=[N-] [1-butyl-3-methylimidazolium dicyanamide]
Settings | mass density [kg/m3]
237.2 K, 1327.9 kPa | 1099.45
242.14 K, 9986.9 kPa | 1099.05
247.77 K, 20189 kPa | 1098.57
248.09 K, 1170.5 kPa | 1092.06
253.33 K, 10197 kPa | 1091.63
253.33 K, 29961 kPa | 1098.11
259.12 K, 20009 kPa | 1091.16
259.17 K, 39931 kPa | 1097.63
259.68 K, 1030 kPa | 1084.28
265.12 K, 50114 kPa | 1097.14
265.24 K, 10141 kPa | 1083.84
265.25 K, 30347 kPa | 1090.66
270.55 K, 18709 kPa | 1083.42
271.07 K, 59859 kPa | 1096.65
271.13 K, 39925 kPa | 1090.18
273.28 K, 2767.5 kPa | 1075.98
277.42 K, 50079 kPa | 1089.67
277.92 K, 9955.1 kPa | 1075.61
277.96 K, 30503 kPa | 1082.82
277.98 K, 10008 kPa | 1075.61
283.67 K, 59955 kPa | 1089.17
284.14 K, 40138 kPa | 1082.33
284.15 K, 1038.8 kPa | 1068.31
284.23 K, 1148.3 kPa | 1068.31
284.47 K, 20074 kPa | 1075.1
291.05 K, 29671 kPa | 1074.21
291.05 K, 30032 kPa | 1074.57
291.06 K, 11299 kPa | 1067.78
291.44 K, 51356 kPa | 1081.75
296.97 K, 19796 kPa | 1067.32
297.26 K, 60158 kPa | 1081.29
298.18 K, 40270 kPa | 1073.65
298.18 K, 40659 kPa | 1074.02
299.21 K, 3719.1 kPa | 1059.78
303.97 K, 10315 kPa | 1059.42
303.97 K, 30176 kPa | 1066.78
304.81 K, 50325 kPa | 1073.5
310.98 K, 40117 kPa | 1066.24
311.01 K, 20033 kPa | 1058.89
311.34 K, 59700 kPa | 1072.99
311.37 K, 676.6 kPa | 1050.98
317.98 K, 49917 kPa | 1065.7
318.27 K, 9911 kPa | 1050.46
318.27 K, 30183 kPa | 1058.34
325.32 K, 60007 kPa | 1065.14
325.56 K, 39796 kPa | 1057.8
326 K, 19921 kPa | 1049.89
326.53 K, 876.3 kPa | 1041.71
333.12 K, 50157 kPa | 1057.22
333.67 K, 9918.1 kPa | 1041.19
333.67 K, 30169 kPa | 1049.32
340.8 K, 60149 kPa | 1056.64
341.31 K, 39980 kPa | 1048.75
341.77 K, 20126 kPa | 1040.59
342.41 K, 781.5 kPa | 1031.94
349.32 K, 50089 kPa | 1048.15
349.8 K, 9629.2 kPa | 1031.41
349.8 K, 30031 kPa | 1040.31

CCn1cc[n+](C)c1.N#CN=C=[N-] [1-ethyl-3-methylimidazolium dicyanamide]
Settings | mass density [kg/m3]
256.82 K, 20357 kPa | 1142.71
256.92 K, 29975 kPa | 1145.41
256.97 K, 10611 kPa | 1139.49
257.12 K, 1250.8 kPa | 1136.35
261.97 K, 9950.2 kPa | 1135.94
262.11 K, 19886 kPa | 1139.04
262.33 K, 39980 kPa | 1144.93
262.46 K, 619.6 kPa | 1132.49
267.67 K, 20023 kPa | 1135.45
267.67 K, 39943 kPa | 1141.75
267.7 K, 9753.2 kPa | 1132.18
267.7 K, 9894 kPa | 1132.04
267.7 K, 29879 kPa | 1138.56
267.7 K, 29968 kPa | 1138.56
267.7 K, 49706 kPa | 1144.45
267.71 K, 20196 kPa | 1135.44
267.71 K, 40066 kPa | 1141.75
267.71 K, 49662 kPa | 1144.45
268.06 K, 649.7 kPa | 1128.69
273.25 K, 29805 kPa | 1134.96
273.34 K, 49967 kPa | 1141.26
273.4 K, 39951 kPa | 1138.06
273.49 K, 19943 kPa | 1131.55
273.51 K, 10041 kPa | 1128.22
273.55 K, 60051 kPa | 1143.95
274.21 K, 775.7 kPa | 1124.56
278.57 K, 59071 kPa | 1140.8
279.2 K, 40050 kPa | 1134.45
279.22 K, 50024 kPa | 1137.55
279.41 K, 30010 kPa | 1131.04
279.59 K, 10349 kPa | 1124.23
279.65 K, 9960.6 kPa | 1124.1
279.66 K, 20569 kPa | 1127.7
280.01 K, 1016.8 kPa | 1120.72
280.04 K, 1077.6 kPa | 1120.72
285.08 K, 50002 kPa | 1133.94
285.13 K, 60064 kPa | 1137.04
285.39 K, 9816.5 kPa | 1120.27
285.42 K, 40116 kPa | 1130.53
285.43 K, 19560 kPa | 1123.61
285.44 K, 19459 kPa | 1123.61
285.45 K, 9814.9 kPa | 1120.27
285.5 K, 20153 kPa | 1123.73
285.51 K, 30235 kPa | 1127.2
286.62 K, 2009 kPa | 1116.68
291.09 K, 59995 kPa | 1133.42
291.45 K, 50059 kPa | 1130.01
291.47 K, 9754 kPa | 1116.28
291.47 K, 50178 kPa | 1130.13
291.51 K, 40153 kPa | 1126.69
291.61 K, 19904 kPa | 1119.75
291.79 K, 29944 kPa | 1123.08
297.62 K, 60101 kPa | 1129.48
297.75 K, 50232 kPa | 1126.16
297.91 K, 20011 kPa | 1115.75
297.98 K, 30141 kPa | 1119.22
298.08 K, 1020.2 kPa | 1108.78
298.16 K, 103.4 kPa | 1108.35
298.16 K, 40265 kPa | 1122.54
303.94 K, 60074 kPa | 1125.65
304.2 K, 39942 kPa | 1118.71
304.23 K, 49724 kPa | 1122.03
304.28 K, 29918 kPa | 1115.22
304.34 K, 10634 kPa | 1108.27
310.52 K, 20049 kPa | 1107.77
310.57 K, 59616 kPa | 1121.51
310.65 K, 49941 kPa | 1118.17
310.81 K, 40003 kPa | 1114.68
311.24 K, 1092 kPa | 1100.23
317.17 K, 9765 kPa | 1099.76
317.19 K, 29905 kPa | 1107.23
317.23 K, 59899 kPa | 1117.62
317.44 K, 50073 kPa | 1114.13
324.19 K, 60082 kPa | 1113.57
324.28 K, 20103 kPa | 1099.19
325.02 K, 1127.1 kPa | 1091.44
331.28 K, 30008 kPa | 1098.63
331.29 K, 9862.4 kPa | 1090.95
337.92 K, 60055 kPa | 1105.54
338.39 K, 40023 kPa | 1098.06
338.74 K, 20149 kPa | 1090.36
339.67 K, 1074 kPa | 1082.2
345.69 K, 50073 kPa | 1097.48
346.21 K, 30275 kPa | 1089.77
346.22 K, 9873.1 kPa | 1081.75
